Values after ≈ are worked out from the molar mass of the structure shown.
How the values were obtained:
[1] = system: Acinetobacter baumannii DSM-30008; experiment: MIC microdilution, A. baumannii DSM-30008; format: cell-based
Description: (§1) Indicator strains used in susceptibility assays were either part of our strain collection or purchased from the German Collection of Microorgansims and Cell Cultures (DSMZ) or from the American Type Culture Collection (ATCC). E. coli strain WT and corresponding E. coli mutants were kindly provided by Prof. Dr. P. Heisig, Pharmaceutical Biology and Microbiology, University of Hamburg. E. coli strains JW0401-1 (WT) and Δtsx were obtained from the CGSC collection.
(§2) MIC values were determined in standardized microdilution assays. Overnight cultures were diluted in the appropriate growth medium to achieve an inoculum of 10^4-10^6 cfu/mL. Yeasts were grown in Myc medium (1% phytone peptone, 1% glucose, 50 mM HEPES, pH 7.0), S. pneumonia and Enterococcus spp. in tryptic soy broth (TSB: 1.7% peptone casein, 0.3% peptone soymeal, 0.25% glucose, 0.5% NaCl, 0.25% K2HPO4; pH 7.3); M. smegmatis in Middlebrook 7H9 medium supplemented with 10% Middlebrook ADC enrichment and 2 ml/I glycerol). All other listed bacteria were grown in Müller-Hinton broth (0.2% beef infusion solids, 1.75% casein hydrolysate, 0.15% starch, pH 7.4). Cystobactamides and reference drugs were added directly to the cultures in sterile 96-well plates as duplicates and serial dilutions were prepared. Microorganisms were grown on a microplate shaker (750 rpm, 30-37° C., 18-48 h), except S. pneumonia, which was grown at non-shaking conditions (37° C., 5% CO2, 18 h). Growth inhibition was assessed by visual inspection and the MIC was defined as the lowest concentration of compound that inhibited visible growth.

[2] = system: Citrobacter freundii DSM-30039; experiment: MIC microdilution, C. freundii DSM-30039; format: cell-based
Description: as §1, §2

E. coli DSM-1116 = experiment: MIC microdilution, E. coli DSM-1116; format: cell-based, Escherichia coli
Description: as §1, §2

[3] = system: E. coli DSM-26863 (tolC3); experiment: MIC microdilution, E. coli DSM-26863 (tolC3); format: cell-based, Escherichia coli
Description: as §1, §2

E. coli JW0401-1 (WT) = experiment: MIC microdilution, E. coli JW0401-1 (WT); format: cell-based, Escherichia coli; conditions: Gram-negative set
Description: as §1
as §2, with “Cystobactamides and reference drugs were added directly to the cultures in sterile 96-well plates as duplicates and serial dilutions were prepared. Microorganisms were grown on a microplate shaker (750 rpm, 30-37° C., 18-48 h), except S. pneumonia, which was grown at non-shaking conditions (37° C., 5% CO2, 18 h).” left out

E. coli Δtsx = experiment: MIC microdilution, E. coli Δtsx; format: cell-based, Escherichia coli; conditions: Gram-negative set
Description: as §1
as §2, with “Cystobactamides and reference drugs were added directly to the cultures in sterile 96-well plates as duplicates and serial dilutions were prepared. Microorganisms were grown on a microplate shaker (750 rpm, 30-37° C., 18-48 h), except S. pneumonia, which was grown at non-shaking conditions (37° C., 5% CO2, 18 h).” left out

E. coli WT = experiment: MIC microdilution, E. coli WT; format: cell-based, Escherichia coli
Description: as §1, §2

[4] = system: E. coli WT-3 [gyrA(S83L, D87G)]; experiment: MIC microdilution, E. coli WT-3 [gyrA(S83L, D87G)]; format: cell-based, Escherichia coli
Description: as §1, §2

[5] = system: E. coli WT-III [marRΔ74bp]; experiment: MIC microdilution, E. coli WT-III [marRΔ74bp]; format: cell-based, Escherichia coli; conditions: for MIC E. coli WT-III [marRΔ74bp]: Gram-negative set
Description: as §1, §2

[6] = system: P. aeruginosa DSM-24600 (ESBL); experiment: MIC microdilution, P. aeruginosa DSM-24600 (ESBL); format: cell-based, Pseudomonas aeruginosa
Description: as §1, §2

[7] = system: Proteus vulgaris DSM-2140; experiment: MIC microdilution, P. vulgaris DSM-2140; format: cell-based
Description: as §1, §2

[8] = system: Escherichia coli (TolC-deficient); experiment: MIC microdilution, E. coli (TolC-deficient); format: cell-based; conditions: larger panel
Description: as §1
as §2, with “Cystobactamides and reference drugs were added directly to the cultures in sterile 96-well plates as duplicates and serial dilutions were prepared. Microorganisms were grown on a microplate shaker (750 rpm, 30-37° C., 18-48 h), except S. pneumonia, which was grown at non-shaking conditions (37° C., 5% CO2, 18 h).” left out

[9] = system: Enterobacter cloacae DSM-30054; experiment: MIC microdilution, Enterobacter cloacae DSM-30054; format: cell-based; conditions: larger panel
Description: Dr. P. Heisig, Pharmaceutical Biology and Microbiology, University of Hamburg.
Overnight cultures were diluted in the appropriate growth medium to achieve an inoculum of 10^4-10^6 cfu/mL. […] Cystobactamides and reference drugs were added directly to the cultures in sterile 96-well plates as duplicates and serial dilutions were prepared. Microorganisms were grown on a microplate shaker (750 rpm, 30-37° C., 18-48 h), except S. pneumonia, which was grown at non-shaking conditions (37° C., 5% CO2, 18 h). Growth inhibition was assessed by visual inspection and the MIC was defined as the lowest concentration of compound that inhibited visible growth.

[10] = system: Pseudomonas aeruginosa PA14; experiment: MIC microdilution, P. aeruginosa PA14; format: cell-based; conditions: larger panel
Description: as §1, §2

[11] = system: Pseudomonas aeruginosa ATCC27853; experiment: MIC microdilution, P. aeruginosa ATCC27853; format: cell-based; conditions: larger panel
Description: as §1, §2

[12] = system: Pseudomonas aeruginosa DSM-24599; experiment: MIC microdilution, P. aeruginosa DSM-24599; format: cell-based; conditions: larger panel
Description: as §1, §2

[13] = system: Pseudomonas aeruginosa DSM-46316 (ESBL); experiment: MIC microdilution, P. aeruginosa DSM-46316 (ESBL); format: cell-based; conditions: larger panel
Description: as §1, §2

[14] = system: Serratia marcescens DSM-30121; experiment: MIC microdilution, Serratia marcescens DSM-30121; format: cell-based; conditions: larger panel
Description: as §1, §2

[15] = system: Enterococcus faecium DSM-20477; experiment: MIC microdilution, Enterococcus faecium DSM-20477; format: cell-based; conditions: larger panel
Description: as §1, §2

[16] = system: Staphylococcus epidermidis DSM-28765; experiment: MIC microdilution, Staphylococcus epidermidis DSM-28765; format: cell-based; conditions: larger panel
Description: as §1, §2

[17] = system: CHO-K1 (Chinese hamster ovary cell line); experiment: Cytotoxicity (MTT), CHO-K1 cell line; format: cell-based; conditions: 5 d incubation
Description: CHO-K1 cells were obtained from the DSMZ and were cultured under conditions recommended by the depositor. Cells were seeded at 6×10^3 cells/well of 96-well plates in 180 μl complete medium and treated with compounds in serial dilution after 2 h of equilibration. Each sample was tested in duplicate as well as the internal DMSO control. After 5 d incubation, 20 μl of 5 mg/ml MTT (thiazolyl blue tetrazolium bromide) in PBS was added per well and it was further incubated for 2 h at 37° C. The medium was then discarded and cells were washed with 100 μl PBS before adding 100 μl 2-propanol/10 N HCl (250:1) in order to dissolve formazan granules. The absorbance at 570 nm was measured using a microplate reader (Tecan Infinite M200Pro), and cell viability was expressed as percentage relative to the respective […] control.

E. coli gyrase = target: T1, E. coli gyrase (Escherichia coli, UniProt P0AES4+P0AES6); experiment: E. coli gyrase DNA supercoiling assay; format: biochemical; conditions: read-out: IC50 Ec gyrase (sc)
T1 construct: purchased Inspiralis, Norwich, UK
Description: (§3) To test the anti-gyrase activity of cystobactamides, commercial E. coli and P. aeruginosa gyrase supercoiling kits (Inspiralis, Norwich, UK) were used. For standard reactions 0.5 μg relaxed plasmid were mixed with 1 unit gyrase in 1× reaction buffer (see kit manual) and incubated for 30 min at 37° C. The reactions were quenched by the addition of DNA gel loading buffer containing 10% (w/v) SDS. The samples were separated on 1% (w/v) agarose gels and DNA was visualized using EtBr. All natural products stock solutions and dilutions were prepared in 100% DMSO and added to the supercoiling reactions giving a final DMSO concentration of 2% (v/v).

P. aeruginosa gyrase = target: T2, P. aeruginosa gyrase (Pseudomonas aeruginosa, UniProt P48372+Q9I7C2); experiment: P. aeruginosa gyrase DNA supercoiling assay; format: biochemical; conditions: read-out: IC50 Pa gyrase (sc)
T2 construct: purchased Inspiralis, Norwich, UK
Description: as §3

Compound: CO[C@@H](C(N)=O)[C@H](NC(=O)c1ccc(NC(=O)c2ccc([N+](=O)[O-])cc2)cc1)C(=O)Nc1ccc(C(=O)Nc2ccc(C(=O)Nc3ccc(C(=O)O)cc3)c(O)c2OC(C)C)cc1 [Cys 861-2]
- MIC A. baumannii DSM-30008 ([1]; Gram-negative set): 0.5 µg/mL (≈ 0.58 µM)
- MIC Acinetobacter baumannii DSM-30008 ([1]; larger panel): 0.5 µg/mL (≈ 0.58 µM)
- MIC C. freundii DSM-30039 ([2]; Gram-negative set): 0.06 µg/mL (≈ 0.0696 µM)
- MIC Citrobacter freundii DSM-30039 ([2]; larger panel): 0.06 µg/mL (≈ 0.0696 µM)
- MIC E. coli DSM-1116 (E. coli DSM-1116; Gram-negative set): 0.13 µg/mL (≈ 0.151 µM)
- MIC Escherichia coli DSM-1116 (E. coli DSM-1116; larger panel): 0.4 µg/mL (≈ 0.464 µM)
- MIC E. coli DSM-26863 (tolC3) ([3]; Gram-negative set): 0.06 µg/mL (≈ 0.0696 µM)
- MIC Escherichia coli DSM-26863 (tolC3) ([3]; larger panel): 0.4 µg/mL (≈ 0.464 µM)
- MIC E. coli JW0401-1 (WT) (E. coli JW0401-1 (WT)): 0.25 µg/mL (≈ 0.29 µM)
- MIC E. coli Δtsx (E. coli Δtsx): 0.25 µg/mL (≈ 0.29 µM)
- MIC E. coli WT (E. coli WT; Gram-negative set): 0.13 µg/mL (≈ 0.151 µM)
- MIC Escherichia coli WT (E. coli WT; larger panel): 0.125 µg/mL (≈ 0.145 µM)
- MIC E. coli WT-3 [gyrA(S83L, D87G)] ([4]; Gram-negative set): 0.5 µg/mL (≈ 0.58 µM)
- MIC Escherichia coli WT-3 [gyrA(S83L, D87G)] ([4]; larger panel): 0.5 µg/mL (≈ 0.58 µM)
- MIC E. coli WT-III [marRΔ74bp] [5]: 0.5 µg/mL (≈ 0.58 µM)
- MIC Escherichia coli WTIII (marRΔ74bp) ([5]; larger panel): 0.5 µg/mL (≈ 0.58 µM)
- MIC P. aeruginosa DSM-24600 (ESBL) ([6]; Gram-negative set): 1 µg/mL (≈ 1.16 µM)
- MIC Pseudomonas aeruginosa DSM-24600 (ESBL) ([6]; larger panel): 1 µg/mL (≈ 1.16 µM)
- MIC P. vulgaris DSM-2140 ([7]; Gram-negative set): 0.25 µg/mL (≈ 0.29 µM)
- MIC Proteus vulgaris DSM-2140 ([7]; larger panel): 0.25 µg/mL (≈ 0.29 µM)
- MIC Escherichia coli (TolC-deficient) [8]: 0.06 µg/mL (≈ 0.0696 µM)
- MIC Enterobacter cloacae DSM-30054 [9]: 64 µg/mL (≈ 74.3 µM)
- MIC Pseudomonas aeruginosa PA14 [10]: 2 µg/mL (≈ 2.32 µM)
- MIC Pseudomonas aeruginosa ATCC27853 [11]: 4 µg/mL (≈ 4.64 µM)
- MIC Pseudomonas aeruginosa DSM-24599 [12]: 2 µg/mL (≈ 2.32 µM)
- MIC Pseudomonas aeruginosa DSM-46316 (ESBL) [13]: 2 µg/mL (≈ 2.32 µM)
- MIC Serratia marcescens DSM-30121 [14]: 64 µg/mL (≈ 74.3 µM)
- MIC Enterococcus faecium DSM-20477 [15]: 0.5 µg/mL (≈ 0.58 µM)
- MIC Staphylococcus epidermidis DSM-28765 [16]: 0.5 µg/mL (≈ 0.58 µM)
- IC50 [17]: > 100000 nM
- IC50 (E. coli gyrase): 280 nM
- IC50 (P. aeruginosa gyrase): 180 nM
- genotoxic effect, micronucleus formation (CHO-K1 cell line): No detectable genotoxic effect

Compound: CCOc1cc(C(=O)O)ccc1NC(=O)c1ccc(NC(=O)c2ccc(NC(=O)C(NC(=O)c3ccc(NC(=O)c4ccc([N+](=O)[O-])cc4)cc3)C(OC)C(N)=O)cc2)c(OC(C)C)c1O (stereo not drawn) [Cys 905-2]
- MIC ([1]; Acinetobacter baumannii, DSM30008, Gram-negative set, read-out: MIC A. baumannii DSM-30008): 64 µg/mL (≈ 70.7 µM)
- MIC ([2]; Citrobacter freundii, DSM30039, Gram-negative set, read-out: MIC C. freundii DSM-30039): 8 µg/mL (≈ 8.83 µM)
- MIC (E. coli DSM-1116; Escherichia coli, DSM1116, Gram-negative set, read-out: MIC E. coli DSM-1116): 8 µg/mL (≈ 8.83 µM)
- MIC ([3]; Escherichia coli, DSM26863, read-out: MIC E. coli DSM-26863 (tolC3)): 2 µg/mL (≈ 2.21 µM)
- MIC (E. coli WT; Escherichia coli, Gram-negative set, read-out: MIC E. coli WT): 4 µg/mL (≈ 4.42 µM)
- MIC ([4]; Escherichia coli, read-out: MIC E. coli WT-3 [gyrA(S83L, D87G)]): > 64 µg/mL
- MIC E. coli WT-III [marRΔ74bp] [5]: >64 µg/mL
- MIC ([6]; Pseudomonas aeruginosa, DSM24600, Gram-negative set, read-out: MIC P. aeruginosa DSM-24600 (ESBL)): > 64 µg/mL
- MIC ([7]; Proteus vulgaris, DSM2140, Gram-negative set, read-out: MIC P. vulgaris DSM-2140): 32 µg/mL (≈ 35.3 µM)
